Reference: paper PMC2905478 (Peptides, 2010)
Where two headings read alike, the source gives them in different places. *1 amine or outer side, *2 acyl side, *3 side chain or, on linkers, in order; H or OH if unused. Where a SMILES comes first, the peptide text is derived from it. [ ]: non-standard residue; d: D form. X1 = O=C(C[C@@H](N[*:1])c1ccc(Cl)cc1)[*:2]; β3hPhg = O=C(C[C@@H](N[*:1])c1ccccc1)[*:2]; Nle = CCCC[C@H](N)C(=O)O

Key:
[1] = target: T1, hBRS-3 (Homo sapiens, UniProt P32247); conditions: for affinities from binding studies for the hBRS-3 receptor, range over 3 cell lines: 3 hBRS-3 cell lines (NC-N417, Balb, H1299)
T1 sequence (P32247 whole entry): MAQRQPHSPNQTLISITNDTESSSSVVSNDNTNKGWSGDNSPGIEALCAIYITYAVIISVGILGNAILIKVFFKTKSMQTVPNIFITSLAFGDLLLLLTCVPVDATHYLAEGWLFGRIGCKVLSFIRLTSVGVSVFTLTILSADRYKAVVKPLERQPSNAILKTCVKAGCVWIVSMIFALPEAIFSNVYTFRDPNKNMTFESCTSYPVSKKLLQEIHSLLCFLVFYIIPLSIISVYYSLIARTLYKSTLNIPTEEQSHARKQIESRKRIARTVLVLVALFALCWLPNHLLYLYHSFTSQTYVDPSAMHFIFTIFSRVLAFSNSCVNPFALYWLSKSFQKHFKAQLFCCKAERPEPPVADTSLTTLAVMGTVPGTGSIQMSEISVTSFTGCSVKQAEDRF

[2] = target: T1, hBRS-3; conditions: binding; hBRS-3 containing cells (H1299, Balb; Tables 2 and 3)
[3] = target: T2, hGRPR (Homo sapiens, UniProt P30550); conditions: binding, HuTu-80 cells, native hGRPR
T2 sequence (P30550 whole entry): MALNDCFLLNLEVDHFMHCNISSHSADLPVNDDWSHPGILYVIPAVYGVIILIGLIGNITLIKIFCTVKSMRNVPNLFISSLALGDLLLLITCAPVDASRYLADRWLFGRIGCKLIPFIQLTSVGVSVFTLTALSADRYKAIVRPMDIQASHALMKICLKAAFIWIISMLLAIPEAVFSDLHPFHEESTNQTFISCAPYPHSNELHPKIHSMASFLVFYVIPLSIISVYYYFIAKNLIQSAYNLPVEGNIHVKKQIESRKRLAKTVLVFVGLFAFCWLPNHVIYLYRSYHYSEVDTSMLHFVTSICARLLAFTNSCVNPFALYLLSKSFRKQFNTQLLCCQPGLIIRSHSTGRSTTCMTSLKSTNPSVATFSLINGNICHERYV

[4] = target: T3, hNMBR (Homo sapiens, UniProt P28336); conditions: binding; hNMBR/H1299 and hNMBR/Balb cells
T3 sequence (P28336 whole entry): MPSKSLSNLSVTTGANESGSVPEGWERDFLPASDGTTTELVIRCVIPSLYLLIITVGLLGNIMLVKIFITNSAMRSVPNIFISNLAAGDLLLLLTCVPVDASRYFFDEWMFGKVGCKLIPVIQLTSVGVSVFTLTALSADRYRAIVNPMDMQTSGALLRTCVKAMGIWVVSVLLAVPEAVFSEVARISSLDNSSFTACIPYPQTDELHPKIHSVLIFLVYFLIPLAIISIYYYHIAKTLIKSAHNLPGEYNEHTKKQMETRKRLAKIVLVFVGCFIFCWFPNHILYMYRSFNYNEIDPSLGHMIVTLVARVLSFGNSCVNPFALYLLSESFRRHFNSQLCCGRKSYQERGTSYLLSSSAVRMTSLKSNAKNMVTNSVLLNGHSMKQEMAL

[5] = target: T1, hBRS-3; conditions: for agonist efficacy for [3H]IP generation (full/partial agonist): each of the hBRS-3 containing cells, concentrations up to 10,000 nM; for fold less potent than peptide #1 at activating PLC: range over three hBRS-3 containing cells
[6] = target: T2, hGRPR; test: Stimulation of [3H]IP generation; conditions: for fold less potent than peptide #1 at activating PLC: hGRPR containing HuTu-80 and Balb cells
[7] = target: T3, hNMBR; test: Stimulation of [3H]IP generation; conditions: for fold less potent than peptide #1 at activating PLC: hNMBR containing H1299 and Balb cells
[8] = target: T1, hBRS-3; conditions: binding affinities
[9] = target: T1, hBRS-3; test: biochemical; conditions: IC50 (nM) hBRS-3/N417, half-maximal inhibition of binding; 50 pM radioligand, 22 °C, 60 min
[10] = target: T3, hNMBR; test: biochemical
[11] = target: T3, hNMBR; test: biochemical; conditions: IC50 (nM) hNMBR/H1299, half-maximal inhibition of binding
[12] = target: T2, hGRPR; test: Stimulation of [3H]IP generation
[13] = target: T3, hNMBR; test: Stimulation of [3H]IP generation

Row | SMILES | affinities from binding studies for the hBRS-3 receptor, range over 3 cell lines [1] | fold lower affinity than peptide #1, range over hBRS-3 cell lines [2] | fold lower affinity than GRP or peptide #1 [3] [fold] | fold lower affinity than NMB (and peptide #1) [4] | agonist efficacy for [3H]IP generation (full/partial agonist) [5] | fold less potent than peptide #1 at activating PLC [5] | fold less potent than peptide #1 at activating PLC [6] | fold less potent than peptide #1 at activating PLC [7] [fold] | other results
1 | CCCC[C@H](NC(=O)[C@H](Cc1ccccc1)NC(=O)[C@H](Cc1c[nH]cn1)NC(=O)C[C@@H](NC(=O)[C@@H](NC(=O)[C@H](C)NC(=O)[C@H](Cc1c[nH]c2ccccc12)NC(=O)[C@H](CCC(N)=O)NC(=O)[C@H](N)Cc1ccc(O)cc1)C(C)C)c1ccc(Cl)cc1)C(N)=O [Peptide 3, [DTyr^6, (R)-Apa^11-4Cl, Phe^13, Nle^14]Bn(6-14)] (H-[dY]QWAV[X1]HF[Nle]-NH2) | nM affinities | 2.5–17 fold | 750 | 745–5900 fold | none functioning as a partial agonist | 3.3–10 fold | 123–270 fold | > 1000 | 
2 | CCCC[C@H](NC(=O)[C@H](Cc1ccccc1)NC(=O)[C@H](Cc1c[nH]cn1)NC(=O)C[C@@H](NC(=O)[C@@H](NC(=O)[C@H](C)NC(=O)[C@H](Cc1c[nH]c2ccccc12)NC(=O)[C@H](CCC(N)=O)NC(=O)[C@H](N)Cc1ccc(O)cc1)C(C)C)c1ccccc1)C(N)=O [Peptide 2, [DTyr^6, (R)-Apa^11, Phe^13, Nle^14]Bn(6-14)] (H-[dY]QWAV[β3hPhg]HF[Nle]-NH2) | nM affinities | 4–49 fold | 475 | 200–1100 fold | none functioning as a partial agonist | 4–14 fold | 10–25 fold | > 250 | selectivity for hBRS-3 in NCI-N417 cell over hGRPR natively expressed in Hutu cells ([1]; binding affinities): 13 fold; selectivity for hBRS-3 natively expressed in NCI-N417 cells than hNMBR expressed in NCI-H1299 cells ([1]; binding affinities): 15 fold; fold lower affinity than the universal ligand, peptide #1 ([1]; binding, native hBRS-3 in NCI-N417 cells): 3 fold; selectivity for hBRS-3 over hGRPR in the different cells based on binding affinities ([1]; range over cells): 13–32 fold; selectivity for hBRS-3 over the hNMBR based on binding affinities ([1]; range over cells): 15 to 46 fold; selectivity for hBRS-3 expressed in Balb cells over hGRPR in the same cells [8]: 32 fold; selectivity for hBRS-3 expressed in Balb cells than hNMBR in the same cells [8]: 47 fold; selectivity (PLC potency) for hBRS-3 cells over hGRPR containing cells ([5]; Tables 2-4): 10 to 26 fold; IC50 [9]: 4.3 ± 0.2 nM; IC50 [10]: 0.158 ± 0.008 µM; IC50 [11]: 66.1 ± 3.4 nM; EC50 [6]: 0.318 ± 0.025 µM; EC50 [12]: 0.058 ± 0.002 µM; EC50 [13]: 0.038 ± 0.0012 µM; EC50 [7]: 0.195 ± 0.011 µM
